Measurements from US8404283B2, “Standardized plant extract, process for obtaining the same and uses thereof” (Eurofarma Laboratorios Ltda, priority 2007, dated 2013).

Experiments:
mice = settings: cited from earlier work
Swiss Webster mice [1] = experiment: formalin induced pain model (Phase I, Phase II, edema); type: in vivo; settings: oral administration
Excerpt: This model is more specific than the acetic acid induced abdominal contortion model. It allows the assessment of two distinct types of pain: the pain of neurogenic origin (direct stimulation of the nociceptive neurons) and of inflammatory origin, representing the tonic response to pain, accompanied by an inflammatory response related to the release of chemical inflammation mediators. […] Immediately after the formalin injection, the animals were placed under a glass dome surrounded by mirrors in order to facilitate observation of the ensuing behaviour. Observation commenced immediately, initially timing the reaction to pain during the first 5 minutes after the formalin injection (corresponding to the period of neurogenic pain). Following an interval of 10 minutes, the licking times were recorded for a further 15 minutes (corresponding to the inflammatory pain). Total test time was of 30′.
At the end of this observation period, the animals were sacrificed by cervical displacement and the rear paws were removed at the tibiotarsal region and weighed on an analytical balance to quantify the edema induced by the formalin. The difference in weight (in mg) between the right paw (injected with formalin) and the left paw (injected with saline) was considered the rate of edema. […] Each analysis was performed using 8 to 10 male animals (Swiss Webster mice) weighing between 25 and 30 g.
The dose was calculated individually for each animal with the quantity in mg/kg (mg/1.000 g) of the substance to be administrated being in accordance to its weight. The injected volume of the solutions followed the rule of 0.1 ml/10 g of the animal's weight.
The animals were observed after the intraplantar injection of formalin for a period of 30 minutes. The reaction time (time in which the animal remains licking the injected paw) is then quantified in each of the phases: phase I (neurogenic pain—5 min observation) and phase II (inflammatory pain—15 min observation).
(§1) Parametric statistical tests were performed on the models described above. The results were submitted to ANOVA variance analysis followed by appropriate post hoc tests. […] The statistical analyses of the results were performed by means of variance analysis followed by the multiple comparison test using the Dunnett method, when appropriate. Values of p<0.05 were considered to indicate significance. The DI50 was estimated by means of individual experiments using GraphPad Instat statistical software.

Swiss Webster mice [2] = experiment: abdominal contortion model induced by acetic acid; type: in vivo; settings: oral administration; for DI50: dose reducing response by 50%, 95% limits; for IM (%): inhibition of number of contortions
Description: The experimental acetic acid induced abdominal contortion model allows assessment of the antinociceptive activity of various substances that act both at central and peripheral levels. Nociceptive response is induces by the intraperitonal injection of acetic acid (0.6%) diluted in saline solution (0.9%). The abdominal contortions consist in the contraction of the abdominal muscles combined with the extension of one of the rear paws.
Each analysis was performed using 8 to 10 male animals (Swiss Webster mice) weighing between 25 and 30 g. The dose was calculated individually for each animal with the quantity in mg/kg (mg/1.000 g) of the substance to be administrated being in accordance to its weight. The injected volume of the solutions followed the rule of 0.1 ml/10 g of the animal's weight.
as §1

**Q.** With `COc1cc2oc(-c3ccc(O)cc3)cc(=O)c2c(O)c1[C@@H]1O[C@H](CO)[C@@H](O)[C@H](O)[C@H]1O[C@@H]1O[C@@H](C)[C@H](O)[C@@H](O)[C@H]1O` [2″-O-rhamnosylswertisin] as the compound, how does the “analgesia, potency relative to aspirin” value (mice; Meyre-Silva et al. 1999) read?
**A.** approximately 16 times

**Q.** With `CC(=O)Oc1ccccc1C(=O)O` [AAS] as the compound, how does the “DI50” value (Swiss Webster mice [1]; Edema) read?
**A.** >500 mg/kg

**Q.** What about the “IM (%)” value (Swiss Webster mice [1]; Edema) of the same compound?
**A.** 31.7%

**Q.** What about the “DI50” value (Swiss Webster mice [1]; Phase I (neurogenic)) of the same compound?
**A.** >500 mg/kg

**Q.** What about the “IM (%)” value (Swiss Webster mice [1]; Phase I (neurogenic)) of the same compound?
**A.** 12.7%

**Q.** What about the “DI50 (mg/kg)” value (Swiss Webster mice [1]; Phase II (inflammatory)) of the same compound?
**A.** 408.87 (391.47-427.03) mg/kg

**Q.** And the “IM (%)” value (Swiss Webster mice [1]; Phase II (inflammatory))?
**A.** 65.7%

**Q.** What about the “DI50” value (Swiss Webster mice [2]) of the same compound?
**A.** 364.1 mg/kg

**Q.** And the “IM (%)” value (Swiss Webster mice [2])?
**A.** 64.5%

**Q.** For `O=C(O)Cc1ccccc1Nc1c(Cl)cccc1Cl` [Diclophenac], which “DI50” value (Swiss Webster mice [1]; Edema) is on record?
**A.** >500 mg/kg

**Q.** What about the “IM (%)” value (Swiss Webster mice [1]; Edema) of the same compound?
**A.** 33.7%

**Q.** And the “DI50 (mg/kg)” value (Swiss Webster mice [1]; Phase I (neurogenic))?
**A.** 407.48 (357.56-464.37) mg/kg

**Q.** And the “IM (%)” value (Swiss Webster mice [1]; Phase I (neurogenic))?
**A.** 68.8%

**Q.** What about the “IM (%)” value (Swiss Webster mice [1]; Phase II (inflammatory)) of the same compound?
**A.** 82.5%

**Q.** And the “DI50” value (Swiss Webster mice [2])?
**A.** 443.07 mg/kg

**Q.** And the “IM (%)” value (Swiss Webster mice [2])?
**A.** 51.6%

**Q.** Which results are given for `COc1ccc2c(c1)c(CC(=O)O)c(C)n2C(=O)c1ccc(Cl)cc1` [Indomethacin]?
**A.** DI50 (Swiss Webster mice [1]; Edema): >300 mg/kg; IM (%) (Swiss Webster mice [1]; Edema): 36.5%; DI50 (Swiss Webster mice [1]; Phase I (neurogenic)): >300 mg/kg; IM (%) (Swiss Webster mice [1]; Phase I (neurogenic)): 7.2%; DI50 (mg/kg) (Swiss Webster mice [1]; Phase II (inflammatory)): 263.42 (239.83-289.35) mg/kg; IM (%) (Swiss Webster mice [1]; Phase II (inflammatory)): 53.1%; DI50 (Swiss Webster mice [2]): 189.95 mg/kg; IM (%) (Swiss Webster mice [2]): 72.0%

**Q.** Which “analgesic effect on acetic acid induced abdominal contortions” value (mice; Meyre-Silva et al. 1998, 1999) does the source give for `COc1cc2oc(-c3ccc(O)cc3)cc(=O)c2c(O)c1[C@@H]1O[C@H](CO)[C@@H](O)[C@H](O)[C@H]1O` [swertisin] here?
**A.** did not have an analgesic effect
